Reference: US20120197004A1, “NOVEL ANTI-MICROBIAL PEPTIDOMIMETIC COMPOUNDS AND METHODS TO CALCULATE ANTI-MICROBIAL ACTIVITY” (priority 2006, published 2012)
Where a SMILES comes first, the peptide text is derived from it. [ ]: non-standard residue; d: D form. Oic = O=C(O)[C@@H]1C[C@@H]2CCCC[C@@H]2N1; Tic = O=C(O)[C@@H]1Cc2ccccc2CN1; GABA = NCCCC(=O)O

System: Mycobacterium ranae (ATCC 110)
Conditions: in vitro

CC(=O)NCCCC(=O)N[C@@H](Cc1ccccc1)C(=O)N1Cc2ccccc2C[C@H]1C(=O)N1[C@H](C(=O)NCCCC(=O)N[C@@H](CCCCN)C(=O)N2Cc3ccccc3C[C@H]2C(=O)N2[C@H](C(=O)NCCCC(=O)N[C@@H](Cc3ccccc3)C(=O)N3Cc4ccccc4C[C@H]3C(=O)N3[C@H](C(=O)NCCCC(=O)N[C@@H](CCCCN)C(=O)N4Cc5ccccc5C[C@H]4C(=O)N[C@@H](CCCCN)C(=O)N[C@@H](CCCCN)C(=O)N[C@@H](CCCCN)C(=O)N[C@@H](CCCCN)C(=O)N[C@@H](CCCCN)C(N)=O)C[C@@H]4CCCC[C@@H]43)C[C@@H]3CCCC[C@@H]32)C[C@@H]2CCCC[C@@H]21 [FKAB-1Gd3, Ac-Gaba-F-Tic-Oic-Gaba-K-Tic-Oic-Gaba-F-Tic-Oic-Gaba-K-Tic-KKKKK-CONH2] (Ac-[GABA]F[Tic][Oic][GABA]K[Tic][Oic][GABA]F[Tic][Oic][GABA]K[Tic]KKKKK-NH2)
selectivity for Mycobacterium ranae over Staphylococcus aureus ME/GM/TC resistant: 10 fold
